The structures appear in SMILES notation.

The test system of assay [1] is rat liver AMPK. The conditions noted are these: rat liver AMPK; cited from earlier work.
Assay [2] has as its target T1, AMPK α1β1γ1 (Homo sapiens, UniProt P54619+Q13131).
T1 construct: made in house; host or cells: Sf9 insect cells (baculovirus)
Kind of assay: TR-FRET activity assay (LanthaScreen, fluorescein-CREBtide). The format is biochemical. The settings on record: ATP 50 µM, substrate 400 nM, read-out: Activator EC50. In general terms: TR-FRET usually uses a lanthanide donor and a delayed reading to cut background.

For assay [3], the system named is partially purified rat AMPK. Details: method as in PMID 8185610. The conditions noted are these: cited from earlier work.
In assay [4] the target is T1, AMPK α1β1γ1. Kind of assay: CHEF-based activity assay (Omnia S/T23 peptide). The format is biochemical. The conditions noted are these: ATP 40 µM, substrate 8 µM, 30°C. Here is the method:
Kinase reactions were performed in a 50 µL reaction volume at 30°C in 96-well half-area plate (Corning Model 3992) using the same assay buffer as the radiometric assays. Inhibitors and activators were prepared as described for the radiometric assays. Assays were performed by mixing 10 µL enzyme solution, 10 µL of substrate peptide solution, 10 µL of AMP solution (or H2O for the activator experiments), and 10 µL of inhibitor or activator solution. The reactions were initiated by adding 10 µL of ATP solution. The final concentration of Omnia™ S/T23 peptide substrate in the reaction was 8 µM. AMPK α1β1γ1 was used at 320 ng/mL (1.7 nM), at an ATP concentration of 40 µM. AMPK α2β1γ1 was used at 640 ng/mL (3.4 nM), at an ATP concentration of 120 µM. The concentration of AMP in the inhibitor titrations was 80 µM. Immediately after addition of ATP the assay plate was placed into a fluorescence plate reader (Molecular Devices SpectraMax M5, pre-warmed to 30°C). The plates were read for 60 minutes using an excitation wavelength of 360 nm and emission wavelength of 485 nm. The reaction rates were calculated as the change in fluorescence intensity over time (Rfu/sec) over the period where the assay response was linear.
Data analysis and curve-fitting was performed using GraphPad Prism software (GraphPad Software, Inc, San Diego CA).

The target of assay [5] is T1, AMPK α1β1γ1. Kind of assay: Radiometric kinase assay (SAMS peptide, 32P-ATP). The format is biochemical. The conditions noted are these: ATP 35 µM, SAMS 200 µM.
The subject of assay [6] is partially purified human AMPK. More on the design: method as in PMID 8185610. The settings on record: cited from earlier work.

T1 sequence (Q13131 whole entry): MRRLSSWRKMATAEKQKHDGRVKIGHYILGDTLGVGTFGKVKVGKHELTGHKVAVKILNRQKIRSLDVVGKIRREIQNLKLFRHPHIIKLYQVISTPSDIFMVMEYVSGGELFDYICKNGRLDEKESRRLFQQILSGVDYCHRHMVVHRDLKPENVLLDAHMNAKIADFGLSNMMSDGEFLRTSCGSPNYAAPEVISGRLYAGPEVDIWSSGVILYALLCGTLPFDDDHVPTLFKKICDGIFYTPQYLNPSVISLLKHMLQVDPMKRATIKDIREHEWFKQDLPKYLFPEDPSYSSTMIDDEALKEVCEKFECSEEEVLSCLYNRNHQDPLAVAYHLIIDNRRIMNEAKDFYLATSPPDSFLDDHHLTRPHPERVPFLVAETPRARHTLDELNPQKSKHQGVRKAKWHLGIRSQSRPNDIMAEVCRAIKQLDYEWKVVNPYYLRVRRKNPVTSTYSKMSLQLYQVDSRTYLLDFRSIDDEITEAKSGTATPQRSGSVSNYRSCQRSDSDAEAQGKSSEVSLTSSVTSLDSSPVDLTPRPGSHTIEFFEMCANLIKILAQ
T1 sequence (Q9Y478 whole entry partner): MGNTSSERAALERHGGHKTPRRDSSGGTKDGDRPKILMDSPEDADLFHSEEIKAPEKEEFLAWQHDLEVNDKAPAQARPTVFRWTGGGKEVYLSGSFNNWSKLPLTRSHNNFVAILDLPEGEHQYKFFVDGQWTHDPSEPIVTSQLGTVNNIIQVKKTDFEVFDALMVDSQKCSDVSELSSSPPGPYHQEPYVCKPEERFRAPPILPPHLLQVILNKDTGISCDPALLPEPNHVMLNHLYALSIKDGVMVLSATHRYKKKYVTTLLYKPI
T1 sequence (P54619 whole entry): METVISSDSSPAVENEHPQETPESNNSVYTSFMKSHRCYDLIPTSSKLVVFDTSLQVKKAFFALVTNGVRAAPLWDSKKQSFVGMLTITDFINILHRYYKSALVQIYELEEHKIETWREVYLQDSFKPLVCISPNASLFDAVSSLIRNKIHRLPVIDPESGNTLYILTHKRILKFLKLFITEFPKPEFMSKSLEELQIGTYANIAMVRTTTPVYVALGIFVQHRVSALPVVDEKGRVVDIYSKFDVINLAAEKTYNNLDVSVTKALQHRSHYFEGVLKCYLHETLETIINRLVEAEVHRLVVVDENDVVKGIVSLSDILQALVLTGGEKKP

Broadly, the IC50 is the point on the concentration scale where inhibition reaches its midpoint. As to `c1cc(-c2cnn3cc(-c4ccc(OCCN5CCCCC5)cc4)cnc23)ccn1` [Cpd C], the IC50 in assay [1] is 109 nM.
On to `Nc1ncnc2c1ncn2[C@@H]1O[C@H](COP(O)(O)=S)[C@@H](O)[C@H]1O` [ATMP, adenosine 5′-O-thiomonophosphate], for which the EC50 was 250 nM in assay [2]; 650 nM in assay [3] (rat AMPK, read-out: half-maximal stimulatory concentration); 250 nM in assay [4] (read-out: Activator EC50); 700 nM in assay [5] (read-out: Activator EC50). Further, the figures for the “fold stimulation (maximal extent of activation)” value in assay [3] (partially purified rat AMPK) and in assay [6] were 3 fold and 2.5 fold, respectively. Further, the “concentration above which activity is inhibited” value in assay [3] (rat AMPK) was “above 25 µM”. Besides, the Max. fold-activation was 1.8 fold in assay [4] and 1.7 fold in assay [5].
